We go through 28 compounds from ChEMBL document CHEMBL4819087, “Identification and optimization of 3-bromo-N'-(4-hydroxybenzylidene)-4-methylbenzohydrazide derivatives as mTOR inhibitors that induce autophagic cell death and apoptosis in triple-negative breast cancer” (Eur J Med Chem, 2021).

The structures appear in SMILES notation.

The target in test [1] is Serine/threonine-protein kinase mTOR (Homo sapiens, UniProt P42345). Put plainly: Inhibition of mTOR (unknown origin).
Test [2] relates to MDA-MB-231. Put plainly: Induction of autophagy in human MDA-MB-231 cells assessed as MDC positive ratio at 1 uM incubated for 6 hrs by MDC staining based flow cytometry analysis. The format is functional. (In general: Flow cytometry measures light scatter and fluorescence of single cells or particles in a stream.)
The subject of another test is A549. Briefly: cells. Conditions: Homo sapiens, A549, 24 h.
Test [3] deals with MDA-MB-231. Briefly: cells. The conditions noted are these: Homo sapiens, MDA-MB-231, 24 h.
Description: Antiproliferative activity against human MDA-MB-231 cells assessed as reduction in cell viability incubated for 24 hrs by MTT assay
A further test relates to MDA-MB-468. Put plainly: cells. Conditions: Homo sapiens, MDA-MB-468, 24 h.

Description for A549: Antiproliferative activity against human A549 cells assessed as reduction in cell viability incubated for 24 hrs by MTT assay
Description for MDA-MB-468: Antiproliferative activity against human MDA-MB-468 cells assessed as reduction in cell viability incubated for 24 hrs by MTT assay

With `C/C(=N\NC(=O)c1cccc(F)c1)c1ccc(O)cc1O`, the IC50 (in general, the concentration needed to halve the response being measured) in test [1] came to 4.22 µM; with A549, 15.4 µM; in the test on MDA-MB-231 [3] it was 10.8 µM; with MDA-MB-468 it was 9.24 µM. Besides, the Activity in the test on MDA-MB-231 [2] was found to be 15.04%.

Consider `C/C(=N\NC(=O)c1ccc(C)c(I)c1)c1ccc(C(F)(F)F)cc1`, for which the IC50 in test [1] worked out at 1.98 µM; in the test on A549, 9.46 µM; in the test with MDA-MB-231 [3], 8.3 µM; in the test on MDA-MB-468 it was 8.76 µM. The Activity with MDA-MB-231 [2] is recorded as 14.89%.

For `C/C(=N\NC(=O)c1cccc(Br)c1)c1ccc(C(=O)Nc2cc(N3CCOCC3)ccn2)cc1`, the IC50 stood at 2.45 µM in test [1], 13.7 µM in the test with A549, 9.21 µM in the test on MDA-MB-231 [3] and 10.2 µM in the test with MDA-MB-468. Further, the Activity in the test on MDA-MB-231 [2] is 20.99%.

As to `O=C(NCc1cc(C(F)(F)F)cc(C(F)(F)F)c1)Nc1ccc(C(F)(F)F)cc1`, the 50% inhibitory concentration (IC50) in test [1] was 20.4 µM; with A549, 13.3 µM; in the test on MDA-MB-231 [3] it was 16.9 µM; in the test with MDA-MB-468, 17.9 µM. Also, the Activity in the test with MDA-MB-231 [2] came to 9.62%.

As for `C/C(=N\NC(=O)c1cccc(I)c1)c1ccc(C(=O)O)cc1`, the IC50 in test [1] stood at 0.82 µM; in the test with A549, 8.91 µM; in the test on MDA-MB-231 [3], 8.96 µM; with MDA-MB-468, 6.37 µM. Further, in the test on MDA-MB-231 [2], the Activity is on record as 17.2%.

Consider `CC(NC(=O)Nc1cccc(F)c1)c1ccccc1` (centres undefined), for which the IC50 in test [1] stood at 16.9 µM; in the test on A549 it was 33 µM; in the test with MDA-MB-231 [3], 34.1 µM; in the test with MDA-MB-468 it was 31.9 µM. In addition, in the test on MDA-MB-231 [2], the Activity is given as 8.29%.

For `O=C(Nc1nc2ccccc2[nH]1)c1ccc(OC(F)(F)F)cc1`, the IC50 in test [1] stood at 3.99 µM; in the test with A549 it was 27.5 µM; in the test on MDA-MB-231 [3], 29 µM; with MDA-MB-468 it was 24.1 µM. Also, the Activity in the test on MDA-MB-231 [2] was 11.22%.

For `O=C(NCc1cc(C(F)(F)F)cc(C(F)(F)F)c1)Nc1cccc(F)c1`, the IC50 was found to be 17.6 µM in test [1], 12.5 µM in the test with A549, 13.8 µM in the test with MDA-MB-231 [3] and 17.5 µM in the test with MDA-MB-468. Further, the Activity in the test with MDA-MB-231 [2] was found to be 8.77%.

On to `O=C(NCc1ccc(O)cc1)Nc1cccc(Cl)c1`, for which the IC50 in test [1] stood at 27.1 µM; in the test on A549, 31.2 µM; with MDA-MB-231 [3] it was 19.5 µM; in the test with MDA-MB-468 it was 25.9 µM. The Activity in the test on MDA-MB-231 [2] was determined as 9.22%.

As to `Cc1ccc(C(=O)NCCc2ccc(O)cc2)cc1Br`, the half-inhibitory concentration (IC50) is greater than 30 µM in test [1], 34 µM in the test on A549, 41.7 µM in the test with MDA-MB-231 [3] and 33.7 µM with MDA-MB-468. In the test with MDA-MB-231 [2], the Activity is on record as 11.23%.

As to `C/C(=N\NC(=O)c1cccc(Br)c1)c1ccc(C(=O)Nc2cc[nH]n2)cc1`, the IC50 in test [1] amounted to 1.29 µM; in the test with A549 it was 10.5 µM; in the test with MDA-MB-231 [3], 9.24 µM; in the test on MDA-MB-468, 8.32 µM. Also, the Activity in the test with MDA-MB-231 [2] was 19.78%.

Consider `C/C(=N\NC(=O)c1cccc(Br)c1)c1ccc(C(=O)NN2CCOCC2)cc1`, for which the IC50 was 4.84 µM in test [1], 11.2 µM with A549, 8.11 µM in the test with MDA-MB-231 [3] and 8.17 µM with MDA-MB-468. The Activity in the test with MDA-MB-231 [2] is recorded as 17.2%.

On to `C/C(=N\NC(=O)c1ccc(C)c(F)c1)c1ccc(N)cc1`, for which the IC50 in test [1] was determined as 4.32 µM; in the test with A549, 12 µM; with MDA-MB-231 [3] it was 8.4 µM; in the test on MDA-MB-468, 9.55 µM. Also, the Activity in the test on MDA-MB-231 [2] was 15.44%.

`Cc1ccc(C(=O)Nc2ccc3ccccc3n2)cc1Br`: the IC50 in test [1] amounted to 17.9 µM; with A549, 31.6 µM; in the test on MDA-MB-231 [3], 38 µM; in the test with MDA-MB-468 it was 27.5 µM. Also, the Activity with MDA-MB-231 [2] is on record as 13.81%.

For the compound `Cc1ccc(C(=O)Nc2cc3ccccc3cn2)cc1Br`, the IC50 in test [1] is 15.3 µM; in the test with A549 it was 26.4 µM; in the test with MDA-MB-231 [3], 32.1 µM; in the test on MDA-MB-468 it was 25.9 µM. In the test on MDA-MB-231 [2], the Activity is 11.8%.

As to `C/C(=N\NC(=O)c1cccc(Br)c1)c1ccc(C(=O)O)cc1`, the IC50 in test [1] was 0.69 µM; with A549 it was 7.78 µM; in the test with MDA-MB-231 [3], 7.5 µM; with MDA-MB-468 it was 5.51 µM. The Activity with MDA-MB-231 [2] came to 19.83%.

Consider `Cc1ccc(C(=O)NCc2ccc(O)cc2)cc1Br`, for which the IC50 is greater than 30 µM in test [1], 33.8 µM in the test with A549, 33.4 µM in the test on MDA-MB-231 [3] and 41.9 µM in the test with MDA-MB-468. Further, the Activity in the test on MDA-MB-231 [2] is on record as 12.73%.

For `C/C(=N\NC(=O)c1ccc(C)c(Br)c1)c1ccc(N)cc1`, the IC50 in test [1] turned out to be 7.3 µM; in the test on A549, 13.6 µM; in the test on MDA-MB-231 [3], 9.91 µM; in the test with MDA-MB-468, 12.1 µM. For the same compound, the Activity with MDA-MB-231 [2] worked out at 18.9%.

For `C/C(=N\NC(=O)c1ccc(C)c(I)c1)c1ccncc1`, the 50% inhibitory concentration (IC50) in test [1] worked out at 1.66 µM; with A549 it was 11.3 µM; with MDA-MB-231 [3] it was 9.08 µM; in the test on MDA-MB-468 it was 10.3 µM. In addition, in the test with MDA-MB-231 [2], the Activity came to 16.25%.

Take `O=C(NCc1ccc(O)cc1)Nc1cccc(F)c1`: the IC50 in test [1] is greater than 30 µM; with A549, 22.3 µM; in the test on MDA-MB-231 [3] it was 27.7 µM; in the test with MDA-MB-468 it was 34.1 µM. Also, in the test on MDA-MB-231 [2], the Activity came to 8.31%.

Regarding `C/C(=N\NC(=O)c1ccc(C)c(Br)c1)c1ccc(C(F)(F)F)cc1`, the IC50 stood at 4.76 µM in test [1], 9.07 µM in the test with A549, 9.3 µM in the test on MDA-MB-231 [3] and 9.91 µM in the test with MDA-MB-468. Moreover, in the test on MDA-MB-231 [2], the Activity was found to be 18.65%.

For `O=C(NCc1cccc(Br)c1)Nc1ccc(C(F)(F)F)cc1`, the IC50 in test [1] is 15.8 µM; with A549 it was 26.4 µM; in the test on MDA-MB-231 [3], 20.8 µM; in the test with MDA-MB-468, 24.3 µM. Besides, in the test on MDA-MB-231 [2], the Activity came to 9.1%.

As for `C/C(=N\NC(=O)c1cccc(F)c1)c1ccc(C(=O)Nc2nc3ccccc3[nH]2)cc1`, the IC50 in test [1] worked out at 0.83 µM; in the test on A549, 7.81 µM; in the test on MDA-MB-231 [3], 5.03 µM; in the test on MDA-MB-468, 6.06 µM. Further, the Activity with MDA-MB-231 [2] turned out to be 22.34%.

Regarding `C/C(=N\NC(=O)c1ccc(C)c(Br)c1)c1ccncc1`, the IC50 in test [1] was 5.24 µM; in the test on A549, 12.4 µM; in the test with MDA-MB-231 [3] it was 11 µM; in the test on MDA-MB-468 it was 8.69 µM. In addition, in the test on MDA-MB-231 [2], the Activity amounted to 15.26%.

As to `CC(NC(=O)Nc1cccc(Cl)c1)c1ccccc1` (centres undefined), the IC50 in test [1] is greater than 30 µM; with A549 it was 24.8 µM; in the test on MDA-MB-231 [3] it was 22.6 µM; with MDA-MB-468, 23.7 µM. The Activity in the test with MDA-MB-231 [2] is on record as 9.25%.

Turning to `CO[C@H]1C[C@@H]2CC[C@@H](C)[C@@](O)(O2)C(=O)C(=O)N2CCCC[C@H]2C(=O)O[C@H]([C@H](C)C[C@@H]2CC[C@@H](O)[C@H](OC)C2)CC(=O)[C@H](C)/C=C(\C)[C@@H](O)[C@@H](OC)C(=O)[C@H](C)C[C@H](C)/C=C/C=C/C=C/1C` [SIROLIMUS], the Activity in the test on MDA-MB-231 [2] stood at 31.03%. In addition, the IC50 stood at 30.7 µM in the test with A549, 35.8 µM in the test with MDA-MB-231 [3] and 37.2 µM in the test on MDA-MB-468.

For the compound `C/C(=N\NC(=O)c1cccc(Br)c1)c1cc(O)cc(O)c1`, the IC50 is 8.2 µM in test [1], 10.3 µM with A549, 9.13 µM with MDA-MB-231 [3] and 11 µM with MDA-MB-468. In addition, the Activity in the test on MDA-MB-231 [2] is given as 16.33%.

Turning to `C/C(=N\NC(=O)c1cccc(I)c1)c1ccncc1`, the IC50 stood at 1.17 µM in test [1], 9.84 µM in the test with A549, 12.5 µM in the test with MDA-MB-231 [3] and 12.1 µM with MDA-MB-468. Moreover, the Activity in the test on MDA-MB-231 [2] is reported as 15.79%.
